# Measured values taken from patent publication US20230233569A1 (Revolution Medicines, Inc., priority 2020, published 2023).
# Experiments:
# [1] = test system: 4EBP1 (Thr37/46) phosphorylation (mTORC1) in MDA-MB-468 cells; assay: Cell based AlphaLISA assay, mTOR kinase cellular assay: inhibition of p-4E-BP1 (T37/46) in MDA-MB-468 cells; details: Homo sapiens, read-out: pIC50 for Inhibition of mTORC1 and mTORC2 Substarte Phosphorylation p-4E-BP1-(T37/46) (converted)
# How it was run: (§1)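 MDA-MB-468 cells treated with compound at 0.017-1,000 nM for two to four hours at 37° C, then lysed. Phospho-AKT1/2/3 S473, 4EBP1 T37/46 and P70S6K T389 quantified by AlphaLISA SureFire Ultra in duplicate; IC50 from normalized regression with control-based normalization.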
# [2] = test system: AKT1/2/3 (Ser473) phosphorylation (mTORC2) in MDA-MB-468 cells; assay: Cell based AlphaLISA assay, mTOR kinase cellular assay: inhibition of p-Akt (S473) in MDA-MB-468 cells; details: Homo sapiens, read-out: pIC50 for Inhibition of mTORC1 and mTORC2 Substarte Phosphorylation p-AKT1/2/3-(S473) (converted)
# How it was run: as §1
# [3] = test system: P70S6K (Thr389) phosphorylation (mTORC1) in MDA-MB-468 cells; assay: Cell based AlphaLISA assay, mTOR kinase cellular assay: inhibition of p-P70S6K (T389) in MDA-MB-468 cells; details: Homo sapiens, read-out: pIC50 for Inhibition of mTORC1 and mTORC2 Substarte Phosphorylation p-P70S6K-(T389) (converted)
# Procedure: Cell Based AlphaLISA Assays for Determining IC50 For Inhibition of P-Akt (S473), P-4E-BP1 (T37/46), and P-P70S6K (T389) in MDA-MB-468 Cells
# mTOR Kinase Cellular Assay
# To measure functional activity of mTORC1 and mTORC2 in cells the phosphorylation of 4EBP1 (Thr37/46) and P70S6K (Thr389), and AKT1/2/3 (Ser473) was monitored using AlphaLisa SureFire Ultra Kits (Perkin Elmer). MDA-MB-468 cells (ATCC® HTB-132) were cultured in 96-well tissue culture plates and treated with compounds in the disclosure at concentrations varying from 0.017-1,000 nM for two to four hours at 37° C. Incubations were terminated by removal of the assay buffer and addition of lysis buffer provided with the assay kit. Samples were processed according to the manufacturer's instructions. The Alpha signal from the respective phosphoproteins was measured in duplicate using a microplate reader (Envision, Perkin-Elmer or Spectramax M5, Molecular Devices). Inhibitor concentration response curves were analyzed using normalized IC50 regression curve fitting with control based normalization.
smiles,measurement,setting,value
CO[C@H]1C[C@@H]2CC[C@@H](C)[C@@](O)(O2)C(=O)C(=O)N2CCCC[C@H]2C(=O)O[C@H]([C@H](C)C[C@@H]2CC[C@@H](OC(=O)NCCOCCOCCOCCOCCC(=O)NCc3cnc(N4CCN(c5ncc(C(=O)N6CCc7cc(Cn8nc(-c9ccc%10oc(N)nc%10c9)c9c(N)ncnc98)ccc7C6)cn5)CC4)nc3)[C@H](OC)C2)CC(=O)[C@H](C)/C=C(\C)[C@@H](O)[C@@H](OC)C(=O)[C@H](C)C[C@H](C)/C=C/C=C/C=C/1C [Example 46],IC50,[1],≤ 3.16 nM
same,IC50,[2],3.16 to 31.6 nM
same,IC50,[3],≤ 1 nM
CO[C@H]1C[C@@H]2CC[C@@H](C)[C@@](O)(O2)C(=O)C(=O)N2CCCC[C@H]2C(=O)O[C@H]([C@H](C)C[C@@H]2CC[C@@H](OC(=O)NCc3cnc(N4CCN(C(=O)CCOCCN5CCN(c6ncc(C(=O)NCCOCCC(=O)N7CCc8cc(Cn9nc(-c%10ccc%11oc(N)nc%11c%10)c%10c(N)ncnc%109)ccc8C7)cn6)CC5)CC4)nc3)[C@H](OC)C2)C[C@@H](OC)[C@H](C)/C=C(\C)[C@@H](O)[C@@H](OC)C(=O)[C@H](C)C[C@H](C)/C=C/C=C/C=C/1C [Example 65],IC50,[1],≤ 3.16 nM
same,IC50,[2],31.6 to 1000 nM
same,IC50,[3],≤ 1 nM
CO[C@H]1C[C@@H]2CC[C@@H](C)[C@@](O)(O2)C(=O)C(=O)N2CCCC[C@H]2C(=O)O[C@H]([C@H](C)C[C@@H]2CC[C@@H](OC(=O)NCc3cnc(N4CCN(C(=O)CN(C)CC(=O)NCCOCCOCCC(=O)NCCCCn5nc(-c6ccc7oc(N)nc7c6)c6c(N)ncnc65)CC4)nc3)[C@H](OC)C2)C[C@@H](OC)[C@H](C)/C=C(\C)[C@@H](O)[C@@H](OC)C(=O)[C@H](C)C[C@H](C)/C=C/C=C/C=C/1C [Example 104],IC50,[1],≤ 3.16 nM
same,IC50,[2],> 1000 nM
same,IC50,[3],≤ 1 nM
CO[C@H]1C[C@@H]2CC[C@@H](C)[C@@](O)(O2)C(=O)C(=O)N2CCCC[C@H]2C(=O)O[C@H]([C@H](C)C[C@@H]2CC[C@@H](OC(=O)NCc3cnc(N4CCN(c5ncc(C(=O)NCCOCCOCCOCCOCCC(=O)N6CCc7cc(Cn8nc(-c9cnc%10[nH]ccc%10c9)c9c(N)ncnc98)ccc7C6)cn5)CC4)nc3)[C@H](OC)C2)CC(=O)[C@H](C)/C=C(\C)[C@@H](O)[C@@H](OC)C(=O)[C@H](C)C[C@H](C)/C=C/C=C/C=C/1C [Example 33],IC50,[1],≤ 3.16 nM
same,IC50,[2],> 1000 nM
same,IC50,[3],≤ 1 nM
CO[C@H]1C[C@@H]2CC[C@@H](C)[C@@](O)(O2)C(=O)C(=O)N2CCCC[C@H]2C(=O)O[C@H]([C@H](C)C[C@@H]2CC[C@@H](OC(=O)N3CCc4nc(N5CCN(c6ncc(C(=O)NCCOCCOCCOCCOCCC(=O)N7CCc8cc(Cn9nc(-c%10cnc%11[nH]ccc%11c%10)c%10c(N)ncnc%109)ccc8C7)c(N)n6)CC5)ncc4C3)[C@H](OC)C2)CC(=O)[C@H](C)/C=C(\C)[C@@H](O)[C@@H](OC)C(=O)[C@H](C)C[C@H](C)/C=C/C=C/C=C/1C [Example 109],IC50,[1],> 1000 nM
same,IC50,[2],> 1000 nM
same,IC50,[3],10 to 1000 nM
CO[C@H]1C[C@@H]2CC[C@@H](C)[C@@](O)(O2)C(=O)C(=O)N2CCCC[C@H]2C(=O)O[C@H]([C@H](C)C[C@@H]2CC[C@@H](OC(=O)NCc3cnc(N4CCN(c5ncc(C(=O)NCCOCCOCCOCCOCCC(=O)NCCCCn6nc(-c7cnc8[nH]ccc8c7)c7c(N)ncnc76)cn5)CC4)nc3)[C@H](OC)C2)CC(=O)[C@H](C)/C=C(\C)[C@@H](O)[C@@H](OC)C(=O)[C@H](C)C[C@H](C)/C=C/C=C/C=C/1C [Example 32],IC50,[1],≤ 3.16 nM
same,IC50,[2],3.16 to 31.6 nM
same,IC50,[3],≤ 1 nM
CO[C@H]1C[C@@H]2CC[C@@H](C)[C@@](O)(O2)C(=O)C(=O)N2CCCC[C@H]2C(=O)O[C@H]([C@H](C)C[C@@H]2CC[C@@H](OC(=O)N3CCc4nc(N5CCN(c6ncc(C(=O)NCCOCCOCCOCCOCCC(=O)NCCCCn7nc(-c8cnc9[nH]ccc9c8)c8c(N)ncnc87)cn6)CC5)ncc4C3)[C@H](OC)C2)CC(=O)[C@H](C)/C=C(\C)[C@@H](O)[C@@H](OC)C(=O)[C@H](C)C[C@H](C)/C=C/C=C/C=C/1C [Example 35],IC50,[1],≤ 3.16 nM
same,IC50,[2],3.16 to 31.6 nM
same,IC50,[3],≤ 1 nM
CO[C@H]1C[C@@H]2CC[C@@H](C)[C@@](O)(O2)C(=O)C(=O)N2CCCC[C@H]2C(=O)O[C@H]([C@H](C)C[C@@H]2CC[C@@H](OC(=O)NCc3cnc(N4CCN(c5ncc(C(=O)NCCOCCOCCOCCOCCC(=O)N6CCc7cc(Cn8nc(-c9ccc%10oc(N)nc%10c9)c9c(N)ncnc98)ccc7C6)cn5)CC4)nc3)[C@H](OC)C2)C[C@@H](O)[C@H](C)/C=C(\C)[C@@H](O)[C@@H](OC)C(=O)[C@H](C)C[C@H](C)/C=C/C=C/C=C/1C [Example 28],IC50,[1],≤ 3.16 nM
same,IC50,[2],> 1000 nM
same,IC50,[3],≤ 1 nM
CO[C@H]1C[C@@H]2CC[C@@H](C)[C@@](O)(O2)C(=O)C(=O)N2CCCC[C@H]2C(=O)O[C@H]([C@H](C)C[C@@H]2CC[C@@H](OC(=O)NCCOCCOCCOCCOCCC(=O)NCCOCCOCCOCCOCCC(=O)N3CCc4cc(Cn5nc(-c6ccc7oc(N)nc7c6)c6c(N)ncnc65)ccc4C3)[C@H](OC)C2)C[C@@H](O)[C@H](C)/C=C(\C)[C@@H](O)[C@@H](OC)C(=O)[C@H](C)C[C@H](C)/C=C/C=C/C=C/1C [Example 16],IC50,[1],≤ 3.16 nM
same,IC50,[2],≤ 3.16 nM
same,IC50,[3],≤ 1 nM
CO[C@H]1C[C@@H]2CC[C@@H](C)[C@@](O)(O2)C(=O)C(=O)N2CCCC[C@H]2C(=O)O[C@H]([C@H](C)C[C@@H]2CC[C@@H](OC(=O)NCCOCCC(=O)NCc3cnc(N4CCN(C(=O)CCOCCN5CCN(c6ncc(C(=O)N7CCc8cc(Cn9nc(-c%10ccc%11oc(N)nc%11c%10)c%10c(N)ncnc%109)ccc8C7)cn6)CC5)CC4)nc3)[C@H](OC)C2)C[C@@H](O)[C@H](C)/C=C(\C)[C@@H](O)[C@@H](OC)C(=O)[C@H](C)C[C@H](C)/C=C/C=C/C=C/1C [Example 69],IC50,[1],≤ 3.16 nM
same,IC50,[2],3.16 to 31.6 nM
same,IC50,[3],≤ 1 nM
CO[C@H]1C[C@@H]2CC[C@@H](C)[C@@](O)(O2)C(=O)C(=O)N2CCCC[C@H]2C(=O)O[C@H]([C@H](C)C[C@@H]2CC[C@@H](OC(=O)NCc3cnc(N4CCN(C(=O)CCOCCN5CCN(c6ncc(C(=O)N7CCc8cc(Cn9nc(-c%10ccc%11oc(N)nc%11c%10)c%10c(N)ncnc%109)ccc8C7)cn6)CC5)CC4)nc3)[C@H](OC)C2)CC(=O)[C@H](C)/C=C(\C)[C@@H](O)[C@@H](OC)C(=O)[C@H](C)C[C@H](C)/C=C/C=C/C=C/1C [Example 51],IC50,[1],≤ 3.16 nM
same,IC50,[2],≤ 3.16 nM
same,IC50,[3],≤ 1 nM
CO[C@H]1C[C@@H]2CC[C@@H](C)[C@@](O)(O2)C(=O)C(=O)N2CCCC[C@H]2C(=O)O[C@H]([C@H](C)C[C@@H]2CC[C@@H](OC(=O)NCCOCCC(=O)NCc3cnc(N4CCN(C(=O)CCOCCN5CCN(c6ncc(C(=O)N7CCc8cc(Cn9nc(-c%10ccc%11oc(N)nc%11c%10)c%10c(N)ncnc%109)ccc8C7)cn6)CC5)CC4)nc3)[C@H](OC)C2)CC(=O)[C@H](C)/C=C(\C)[C@@H](O)[C@@H](OC)C(=O)[C@H](C)C[C@H](C)/C=C/C=C/C=C/1C [Example 67],IC50,[1],31.6 to 1000 nM
same,IC50,[2],31.6 to 1000 nM
same,IC50,[3],10 to 1000 nM
CO[C@H]1C[C@@H]2CC[C@@H](C)[C@@](O)(O2)C(=O)C(=O)N2CCCC[C@H]2C(=O)O[C@H]([C@H](C)C[C@@H]2CC[C@@H](OC(=O)NCCOCCC(=O)NCc3cnc(N4CCN(C(=O)CCOCCN5CCN(c6ncc(C(=O)N7CCc8cc(Cn9nc(-c%10ccc%11oc(N)nc%11c%10)c%10c(N)ncnc%109)ccc8C7)cn6)CC5)CC4)nc3)[C@H](OC)C2)C[C@@H](OC)[C@H](C)/C=C(\C)[C@@H](O)[C@@H](OC)C(=O)[C@H](C)C[C@H](C)/C=C/C=C/C=C/1C [Example 70],IC50,[1],≤ 3.16 nM
same,IC50,[2],31.6 to 1000 nM
same,IC50,[3],≤ 1 nM
CO[C@H]1C[C@@H]2CC[C@@H](C)[C@@](O)(O2)C(=O)C(=O)N2CCCC[C@H]2C(=O)O[C@H]([C@H](C)C[C@@H]2CC[C@@H](OC(=O)N3CCc4nc(N5CCN(CCOCCN6CCN(c7ncc(C(=O)N8CCc9cc(Cn%10nc(-c%11cnc%12[nH]ccc%12c%11)c%11c(N)ncnc%11%10)ccc9C8)cn7)CC6)CC5)ncc4C3)[C@H](OC)C2)CC(=O)[C@H](C)/C=C(\C)[C@@H](O)[C@@H](OC)C(=O)[C@H](C)C[C@H](C)/C=C/C=C/C=C/1C [Example 128],IC50,[1],3.16 to 31.6 nM
same,IC50,[2],31.6 to 1000 nM
same,IC50,[3],≤ 1 nM
CO[C@H]1C[C@@H]2CC[C@@H](C)[C@@](O)(O2)C(=O)C(=O)N2CCCC[C@H]2C(=O)O[C@H]([C@H](C)C[C@@H]2CC[C@@H](OC(=O)NCc3cnc(N4CCN(c5ncc(C(=O)NCCOCCOCCOCCOCCC(=O)N6CCc7cc(Cn8nc(-c9ccc%10oc(N)nc%10c9)c9c(N)ncnc98)ccc7C6)cn5)CC4)nc3)[C@H](OC)C2)C[C@@H](OC)[C@H](C)/C=C(\C)[C@@H](O)[C@@H](OC)C(=O)[C@H](C)C[C@H](C)/C=C/C=C/C=C/1C [Example 29],IC50,[1],≤ 3.16 nM
same,IC50,[2],> 1000 nM
same,IC50,[3],≤ 1 nM
